Test results taken from US7157430B2, “(Substituted)acyl dipeptidyl inhibitors of the ICE/CED-3 family of cysteine proteases” (Idun Pharmaceuticals, Inc., priority 1998, dated 2007).
Where a SMILES comes first, the peptide text is derived from it. The star is where a group is joined. Cbz = O=C(OCc1ccccc1)*; CH2F = FC*

Legend:
Type in all cases: biochemical
Settings in all cases: continuous assay 60 min, reaction initiated by adding enzyme
[1] = target: T1, mICE (Mus musculus, UniProt P29452); test: Dissociation constant Ki and irreversible rate constant k3 for irreversible inhibitors, ICE
T1 sequence (P29452 123-296 limits assumed): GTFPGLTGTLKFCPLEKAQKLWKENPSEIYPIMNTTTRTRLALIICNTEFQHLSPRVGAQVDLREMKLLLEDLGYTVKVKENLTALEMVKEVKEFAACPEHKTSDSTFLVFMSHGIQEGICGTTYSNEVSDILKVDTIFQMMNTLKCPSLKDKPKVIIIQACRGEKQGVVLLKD
T1 sequence (P29452 315-402 limits assumed): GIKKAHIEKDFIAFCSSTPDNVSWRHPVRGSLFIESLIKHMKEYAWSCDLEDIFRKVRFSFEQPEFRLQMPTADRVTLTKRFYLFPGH
From the text: (§1) For the irreversible inhibition of a ICE/ced-3 Family Protease enzyme with a competitive irreversible inhibitor; using the model represented by the following formulas: […]
(§2) The product formation at time t may be expressed as:
(§3) [formula] where E, I, EI and E-I denote the active enzyme, inhibitor, non-covalent enzyme-inhibitor complex and covalent enzyme-inhibitor adduct, respectively. The Ki value is the overall dissociation constant of the reversible binding steps, and k3 is the irreversible rate constant. The [S] and Ks values are the substate concentration and dissociation constant of the substrate bound to the enzyme, respectively. [E]^T is the total enzyme concentration.
(§4) The above equations were used to determine the Ki and k3 values of a given inhibitor bound to a ICE/ced-3 family protease. Thus, a continuous assay was run for sixty minutes at various concentrations of the inhibitor and the substrate. The assay was formulated essentially the same as described above for generating the data in Table 1, except that the reaction was initiated by adding the enzyme to the substrate-inhibitor mixture. The Ki and k3 values were obtained by simulating the product AMC formation as a function of time according to Equation 1.
(§5) The reference compound for this assay was Cbz-ValAlaAsp-CH2F and the values are denoted in Table 2 as “Reference”. The Ki values in Table 2 are in micromolar (μM). The k3/Ki values are in moles^−1 seconds^−1 (M^−1s^−1).

[2] = target: T2, MCH-2 (Homo sapiens, UniProt P55212); test: Dissociation constant Ki and irreversible rate constant k3 for irreversible inhibitors, Mch2
T2 sequence (P55212 24-179 limits assumed): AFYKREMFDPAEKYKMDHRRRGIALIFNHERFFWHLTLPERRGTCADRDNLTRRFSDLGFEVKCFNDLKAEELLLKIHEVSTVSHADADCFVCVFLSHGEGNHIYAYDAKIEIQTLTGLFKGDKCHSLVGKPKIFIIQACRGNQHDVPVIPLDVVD
T2 sequence (P55212 194-293 limits assumed): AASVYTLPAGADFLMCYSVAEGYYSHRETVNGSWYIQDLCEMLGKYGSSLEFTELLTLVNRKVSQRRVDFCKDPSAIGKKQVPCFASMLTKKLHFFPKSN
From the text: as §1, §2, §3, §4, §5

[3] = target: MCH-5 (Homo sapiens, UniProt Q14790); test: Dissociation constant Ki and irreversible rate constant k3 for irreversible inhibitors, Mch5
From the text: as §1, §2, §3, §4, §5

[4] = target: T3, CPP32 (Homo sapiens, UniProt P42574); test: Dissociation constant Ki and irreversible rate constant k3 for irreversible inhibitors, CPP32
T3 sequence (P42574 29-175 limits assumed): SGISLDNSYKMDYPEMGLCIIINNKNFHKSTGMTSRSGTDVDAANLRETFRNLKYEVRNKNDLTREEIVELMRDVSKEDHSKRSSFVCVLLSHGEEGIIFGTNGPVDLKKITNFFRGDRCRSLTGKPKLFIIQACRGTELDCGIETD
T3 sequence (P42574 176-277 limits assumed): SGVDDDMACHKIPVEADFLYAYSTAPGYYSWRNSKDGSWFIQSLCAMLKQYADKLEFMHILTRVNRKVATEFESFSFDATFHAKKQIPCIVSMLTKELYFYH
From the text: as §1, §2, §3, §4, §5

MCH-5, sequence (Q14790 217-374 limits assumed, species assumed): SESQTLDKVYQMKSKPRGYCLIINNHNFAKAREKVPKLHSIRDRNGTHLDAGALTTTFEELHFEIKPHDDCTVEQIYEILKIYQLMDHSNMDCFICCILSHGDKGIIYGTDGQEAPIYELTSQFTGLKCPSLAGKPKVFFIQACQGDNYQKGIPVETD
MCH-5, sequence (Q14790 385-479 limits assumed, species assumed): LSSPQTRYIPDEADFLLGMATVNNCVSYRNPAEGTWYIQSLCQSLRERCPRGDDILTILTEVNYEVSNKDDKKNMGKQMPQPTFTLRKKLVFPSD

Row | Ki [1] | mICE k3/Ki [1] | Ki [2] | MCH-2 k3/Ki [2] | Ki [3] | MCH-5 k3/Ki [3] | CPP32 k3/Ki [4] | Ki [4] | Compound
1 | 168 nM | 34,300 M^−1s^−1 | 22 nM | 103,000 M^−1s^−1 | 264 nM | 1,610 M^−1s^−1 | 98,200 M^−1s^−1 | 109 nM | CC(C)[C@H](NC(=O)CCOc1cccc2ccccc12)C(=O)N[C@@H](CC(=O)O)C(=O)COC(=O)c1c(Cl)cccc1Cl [Example 158]
2 | 355 nM | 14,800 M^−1s^−1 | 383 nM | 1,610 M^−1s^−1 | 821 nM | 200 M⁻¹ s⁻¹ | 28,800 M^−1s^−1 | 110 nM | CC(C)[C@H](NC(=O)COc1cccc2ccccc12)C(=O)N[C@@H](CC(=O)O)C(=O)COc1cccc(F)c1F [Example 68]
3 | 205 nM | 28,300 M^−1s^−1 | 28 nM | 8,500 M^−1s^−1 | 37 nM | 14,500 M^−1s^−1 | 121,000 M^−1s^−1 | 50 nM | CC(C)[C@H](NC(=O)COc1cccc2ccccc12)C(=O)N[C@@H](CC(=O)O)C(=O)COc1cc(C(F)(F)F)nn1-c1ccccc1 [Example 143]
4 | 242 nM | 24,800 M^−1s^−1 | 120 nM | 5,150 M^−1s^−1 | 276 nM | 3,200 M^−1s^−1 | 114,000 M^−1s^−1 | 47 nM | CC(C)[C@H](NC(=O)COc1cccc2ccccc12)C(=O)N[C@@H](CC(=O)O)C(=O)COc1ccnc(C(F)(F)F)n1 [Example 121]
5 | 225 nM | 45,600 M^−1s^−1 | 47 nM | 21,100 M^−1s^−1 | 439 nM | 4,370 M^−1s^−1 | 89,700 M^−1s^−1 | 86 nM | C[C@H](NC(=O)COc1ccccc1-c1ccccc1)C(=O)NC(CC(=O)O)C(=O)COc1c(F)c(F)cc(F)c1F (some centres unmarked) [Example 177]
6 | 305 nM | 6,020 M^−1s^−1 | 336 nM | 0 M⁻¹ s⁻¹ | 354 nM | 230 M⁻¹ s⁻¹ | 26,800 M^−1s^−1 | 102 nM | CC(C)[C@H](NC(=O)COc1cccc2ccccc12)C(=O)N[C@@H](CC(=O)O)C(=O)COc1ccccc1F [Example 65]
7 | 184 nM | 46,300 M^−1s^−1 | 71 nM | 10,100 M^−1s^−1 | 90 nM | 17,600 M^−1s^−1 | 14,400 M^−1s^−1 | 942 nM | O=C(O)CC(NC(=O)[C@@H]1CCCCN1C(=O)COc1cccc2ccccc12)C(=O)CF (some centres unmarked) [Example 59]
8 | 137 nM | 20,700 M^−1s^−1 | 81 nM | 5,140 M^−1s^−1 | 202 nM | 9,080 M^−1s^−1 | 114,000 M^−1s^−1 | 38 nM | CC(C)[C@H](NC(=O)COc1cccc2ccccc12)C(=O)N[C@@H](CC(=O)O)C(=O)COc1c(F)cc(F)cc1F [Example 78]
9 | 213 nM | 5,480 M^−1s^−1 | 2410 nM | 83 M⁻¹ s⁻¹ | 4480 nM | 0 M⁻¹ s⁻¹ | 5,240 M^−1s^−1 | 254 nM | Cc1nnc(SCC(=O)[C@H](CC(=O)O)NC(=O)[C@@H](NC(=O)COc2cccc3ccccc23)C(C)C)s1 [Example 128]
10 | 718 nM | 1,620 M^−1s^−1 | 1160 nM | 90 M⁻¹ s⁻¹ | 1040 nM | 120 M⁻¹ s⁻¹ | 6,460 M^−1s^−1 | 90 nM | CC(C)[C@H](NC(=O)COc1cccc2ccccc12)C(=O)N[C@@H](CC(=O)O)C(=O)COc1ccc(F)c(F)c1 [Example 72]
11 | 120 nM | 37,400 M^−1s^−1 | 30 nM | 91,000 M^−1s^−1 | 66 nM | 15,900 M^−1s^−1 | 177,000 M^−1s^−1 | 42 nM | CC(C)C[C@H](NC(=O)COc1ccccc1-c1ccccc1)C(=O)NC(CC(=O)O)C(=O)CF (mixture of isomers) [Example 57, (3RS)-3-[N-((2-Phenylphenoxy)Acetyl)Leucinyl]Amino-5-Fluoro-4-Oxopentanoic Acid]
12 | 63 nM | 143,000 M^−1s^−1 | 38 nM | 39,700 M^−1s^−1 | 25 nM | 59,300 M^−1s^−1 | 351,000 M^−1s^−1 | 38 nM | CC(C)[C@H](NC(=O)COc1cccc2ccccc12)C(=O)N[C@@H](CC(=O)O)C(=O)COP(=O)(c1ccccc1)c1ccccc1 [Example 103]
13 | 467 nM | 24,000 M^−1s^−1 | 23 nM | 91,700 M^−1s^−1 | 223 nM | 6,190 M^−1s^−1 | 137,000 M^−1s^−1 | 63 nM | CC(C)C[C@H](NC(=O)COc1ccccc1-c1ccccc1)C(=O)N[C@@H](CC(=O)O)C(=O)COc1c(F)c(F)cc(F)c1F [Example 164]
14 | 98 nM | 86,400 M^−1s^−1 | 30 nM | 149,000 M^−1s^−1 | 105 nM | 15,200 M^−1s^−1 | 319,000 M^−1s^−1 | 19 nM | CC(C)C[C@H](NC(=O)COc1ccccc1-c1ccccc1)C(=O)N[C@@H](CC(=O)O)C(=O)COP(=O)(c1ccccc1)c1ccccc1 [Example 161]
15 | 168 nM | 59,800 M^−1s^−1 | 15 nM | 166,000 M^−1s^−1 | 136 nM | 7,910 M^−1s^−1 | 206,000 M^−1s^−1 | 47 nM | CC(C)[C@H](NC(=O)COc1ccc2ccccc2c1)C(=O)N[C@@H](CC(=O)O)C(=O)COC(=O)c1c(Cl)cccc1Cl [Example 155]
16 | 218 nM | 9,120 M^−1s^−1 | 203 nM | 0 M⁻¹ s⁻¹ | 255 nM | 700 M⁻¹ s⁻¹ | 8,560 M^−1s^−1 | 33 nM | CC(C)[C@H](NC(=O)COc1cccc2ccccc12)C(=O)N[C@@H](CC(=O)O)C(=O)COc1ccc(F)cc1 [Example 67]
17 | 90 nM | 47,100 M^−1s^−1 | 58 nM | 81,700 M^−1s^−1 | 81 nM | 17,000 M^−1s^−1 | 188,000 M^−1s^−1 | 63 nM | CC(C)[C@H](NC(=O)COc1cccc2ccccc12)C(=O)N[C@@H](CC(=O)O)C(=O)COc1c(F)ccc(F)c1F [Example 76]
18 | 15 nM | 214,000 M^−1s^−1 | 594 nM | 2,950 M^−1s^−1 | 18 nM | 83,300 M^−1s^−1 | 12,200 M^−1s^−1 | 820 nM | CC(NC(=O)C(NC(=O)OCc1ccccc1)C(C)C)C(=O)NC(CC(=O)O)C(=O)CF (stereo not drawn) [refer., Cbz-ValAlaAsp-CH2F, reference compound] (Cbz-Val-Ala-Asp-CH2F; configuration not given here)
19 | 615 nM | 8,400 M^−1s^−1 | 951 nM | 0 M⁻¹ s⁻¹ | 1300 nM | 630 M⁻¹ s⁻¹ | 21,700 M^−1s^−1 | 92 nM | CC(C)[C@H](NC(=O)COc1cccc2ccccc12)C(=O)N[C@@H](CC(=O)O)C(=O)COc1ccc(F)cc1F [Example 69]
